In patent US20180099967A1, “FUSED TRICYCLIC HETEROCYCLIC COMPOUNDS AS HIV INTEGRASE INHIBITORS” (MERCK SHARP & DOHME CORP., priority 2015, published 2018):
Read-outs that look alike come from different tables or passages of the source.

Tested on: HIV-1
Assay: microbe, parasite or virus in culture
Type: cell-based, HIV-1 (H9IIIB or NL4-3 virus)
Description: HIV-1 replication was monitored using MT4-gag-GFP clone D3 (hereafter designate MT4-GFP), which are MT-4 cells modified to harbor a GFP reporter gene, the expression of which is dependent on the HIV-1 expressed proteins tat and rev. Productive infection of an MT4-GFP cell with HIV-1 results in GFP expression approximately 24 h post-infection.
MT4-GFP cells were maintained at 37° C./5% CO2/90% relative humidity in RPMI 1640 supplemented with 10% fetal bovine serum, 100 U/ml penicillin/streptomycin, and 400 μg/ml G418 to maintain the reporter gene. For infections, MT4-GFP cells were placed in the same medium lacking G418 and infected overnight with H9IIIB or NL4-3 virus at an approximate multiplicity of infection of 0.01 in the same incubation conditions. Cells were then washed and resuspended in either RPMI 1640 containing no serum at 1.6×10^5 cells/mL (serum free conditions), 10% normal human serum at 1.6×10^5 cells/mL (10% NHS conditions) or in 100% normal human serum at 2×10^5 cells/mL (100% NHS conditions). Compound plates were prepared by dispensing compounds taken up in DMSO into wells of 384 well poly D lysine-coated plates (0.2 μl/well) using an ECHO acoustic dispenser. Each compound was tested in a 10 point serial 3-fold dilution (typical final concentrations: 4.2 μM-0.21 nM). Controls included no inhibitor (DMSO only) and a combination of three antiviral agents (efavirenz, indinavir, and the integrase strand transfer inhibitor L-002254051 at final concentrations of 4 μM each). Cells were added (50 μL/well) to compound plates and the infected cells were maintained at 37° C./5% CO2/90% relative humidity.
Infected cells were quantified at two time points, ˜48 h and ˜72 h post-infection, by counting the number of green cells in each well using an Acumen eX3 scanner. […] Inhibition of R0 is calculated for each well, and IC50 value was determined using non-linear 4-parameter curve fitting.

[1] = read-out: WILD TYPE CELL ASSAY Viking IP (0% NHS)
[2] = read-out: WILD TYPE CELL ASSAY Viking IP (100% NHS)
[3] = Human immunodeficiency virus 1, read-out: WILD TYPE CELL ASSAY Viking IP (0% NHS) (nM)
[4] = Human immunodeficiency virus 1, read-out: WILD TYPE CELL ASSAY Viking IP (100% NHS) (nM)

Compound	IC50 [1] [nM]	IC50 [2] [nM]	IC50 [3] [nM]	IC50 [4] [nM]
CCN1C[C@@H]2CC(N3CCCC3)c3c(C(=O)NCc4ccc(F)cc4F)c(=O)c(O)c(n32)C1=O (single isomer, unassigned) [Compound 33]	9	32		
CCN1C[C@@H]2CC(N3CCCC3)c3c(C(=O)NCc4ccc(F)cc4F)c(=O)c(O)c(n32)C1=O (single isomer, unassigned) [Compound 34]	55	487		
CCN1C[C@H]2CC(N3CCCC3)c3c(C(=O)NCc4ccc(F)cc4F)c(=O)c(O)c(n32)C1=O (single isomer, unassigned) [Compound 35]	26	62		
CCN1C[C@H]2CC(N3CCCC3)c3c(C(=O)NCc4ccc(F)cc4F)c(=O)c(O)c(n32)C1=O (single isomer, unassigned) [Compound 36]	6	1190		
CCN1C[C@@H]2C[C@@H](N3CCCC3)c3c(C(=O)NCc4cccc(F)c4F)c(=O)c(O)c(n32)C1=O (single isomer, unassigned) [Compound 43]			10	42
CCN1C[C@H]2C[C@H](NC(C)=O)c3c(C(=O)NCc4ccc(F)cc4F)c(=O)c(O)c(n32)C1=O (single isomer, unassigned) [Compound 54]			6	38
CCNC1CC2CN(CCOC)C(=O)c3c(O)c(=O)c(C(=O)NCc4ccc(F)cc4F)c1n32 (single isomer, unassigned) [Compound 65]		42	12	
CCNC1CC2CN(CCOC)C(=O)c3c(O)c(=O)c(C(=O)NCc4ccc(F)cc4F)c1n32 (single isomer, unassigned) [Compound 66]	12	180		
CCNC1CC2CN(CCOC)C(=O)c3c(O)c(=O)c(C(=O)NCc4ccc(F)cc4F)c1n32 (single isomer, unassigned) [Compound 67]	7	31		
CCCN1CC2CC(NS(C)(=O)=O)c3c(C(=O)NCc4ccc(F)cc4F)c(=O)c(O)c(n32)C1=O (single isomer, unassigned) [Compound 68]	3	26		
CCCN1CC2CC(NS(C)(=O)=O)c3c(C(=O)NCc4ccc(F)cc4F)c(=O)c(O)c(n32)C1=O (single isomer, unassigned) [Compound 69]	7	4560		
CCCN1CC2CC(NS(C)(=O)=O)c3c(C(=O)NCc4ccc(F)cc4F)c(=O)c(O)c(n32)C1=O (single isomer, unassigned) [Compound 70]	20	1840		
CCCN1CC2CC(NS(C)(=O)=O)c3c(C(=O)NCc4ccc(F)cc4F)c(=O)c(O)c(n32)C1=O (single isomer, unassigned) [Compound 71]	3	17		
CCN1C[C@@H]2C[C@@H](N)c3c(C(=O)NCc4ccc(F)cc4F)c(=O)c(O)c(n32)C1=O [Compound 1]	2	19		
CCN1C[C@@H]2C[C@H](N)c3c(C(=O)NCc4ccc(F)cc4F)c(=O)c(O)c(n32)C1=O [Compound 2]	12	374		
CCN1C[C@H]2C[C@H](N)c3c(C(=O)NCc4ccc(F)cc4F)c(=O)c(O)c(n32)C1=O [Compound 3]			10	4500
CCN1C[C@H]2C[C@@H](N)c3c(C(=O)NCc4ccc(F)cc4F)c(=O)c(O)c(n32)C1=O [Compound 4]			2	158
CCN1C[C@@H]2C[C@@H](NC)c3c(C(=O)NCc4ccc(F)cc4F)c(=O)c(O)c(n32)C1=O [Compound 5]			2	17
CCN1C[C@@H]2C[C@H](NC)c3c(C(=O)NCc4ccc(F)cc4F)c(=O)c(O)c(n32)C1=O [Compound 6]			5	245
CCN1C[C@H]2C[C@H](NC)c3c(C(=O)NCc4ccc(F)cc4F)c(=O)c(O)c(n32)C1=O [Compound 7]			2	3420
CCN1C[C@H]2C[C@@H](NC)c3c(C(=O)NCc4ccc(F)cc4F)c(=O)c(O)c(n32)C1=O [Compound 8]			2	33
CCN[C@@H]1C[C@H]2CN(CC)C(=O)c3c(O)c(=O)c(C(=O)NCc4ccc(F)cc4F)c1n32 [Compound 9]			1	11
CCN[C@H]1C[C@H]2CN(CC)C(=O)c3c(O)c(=O)c(C(=O)NCc4ccc(F)cc4F)c1n32 [Compound 10]			1	170
CCN[C@H]1C[C@@H]2CN(CC)C(=O)c3c(O)c(=O)c(C(=O)NCc4ccc(F)cc4F)c1n32 [Compound 11]			2	1100

Compound	IC50 [1] [nM]	IC50 [2] [nM]	IC50 [3] [nM]	IC50 [4] [nM]
CCN[C@@H]1C[C@@H]2CN(CC)C(=O)c3c(O)c(=O)c(C(=O)NCc4ccc(F)cc4F)c1n32 [Compound 12]			10	32
CCN[C@H]1C[C@@H]2CN(CC)C(=O)c3c(O)c(=O)c(C(=O)NCc4c(F)cc(F)cc4F)c1n32 [Compound 13]			7	4020
CCN[C@@H]1C[C@@H]2CN(CC)C(=O)c3c(O)c(=O)c(C(=O)NCc4c(F)cc(F)cc4F)c1n32 [Compound 14]			6	47
CCN[C@H]1C[C@@H]2CN(CC)C(=O)c3c(O)c(=O)c(C(=O)NCc4ccc(F)c(Cl)c4F)c1n32 [Compound 15]			13	> 8400
CCN[C@@H]1C[C@@H]2CN(CC)C(=O)c3c(O)c(=O)c(C(=O)NCc4ccc(F)c(Cl)c4F)c1n32 [Compound 16]			> 42000	> 42000
CCN[C@H]1C[C@@H]2CN(CC)C(=O)c3c(O)c(=O)c(C(=O)NCc4cccc(F)c4F)c1n32 [Compound 17]			14	1980
CCN[C@@H]1C[C@@H]2CN(CC)C(=O)c3c(O)c(=O)c(C(=O)NCc4cccc(F)c4F)c1n32 [Compound 18]			10	25
CCN[C@H]1C[C@@H]2CN(CC)C(=O)c3c(O)c(=O)c(C(=O)NCc4cccc(Cl)c4F)c1n32 [Compound 19]			10	10900
CCN[C@@H]1C[C@@H]2CN(CC)C(=O)c3c(O)c(=O)c(C(=O)NCc4cccc(Cl)c4F)c1n32 [Compound 20]			5	28
CCCN[C@H]1C[C@@H]2CN(CC)C(=O)c3c(O)c(=O)c(C(=O)NCc4ccc(F)cc4F)c1n32 [Compound 21]			17	2290
CCCN[C@@H]1C[C@@H]2CN(CC)C(=O)c3c(O)c(=O)c(C(=O)NCc4ccc(F)cc4F)c1n32 [Compound 22]			11	34
CCN1C[C@H]2C[C@H](NCC3CC3)c3c(C(=O)NCc4ccc(F)cc4F)c(=O)c(O)c(n32)C1=O [Compound 23]			43	1090
CCN1C[C@H]2C[C@@H](NCC3CC3)c3c(C(=O)NCc4ccc(F)cc4F)c(=O)c(O)c(n32)C1=O [Compound 24]			20	37
CCN1C[C@H]2C[C@H](NCc3ccccc3)c3c(C(=O)NCc4ccc(F)cc4F)c(=O)c(O)c(n32)C1=O [Compound 25]			28	224
CCN1C[C@H]2C[C@@H](NCc3ccccc3)c3c(C(=O)NCc4ccc(F)cc4F)c(=O)c(O)c(n32)C1=O [Compound 26]			32	108
CCN1C[C@H]2C[C@H](NCCOC)c3c(C(=O)NCc4ccc(F)cc4F)c(=O)c(O)c(n32)C1=O [Compound 27]			17	968
CCN1C[C@H]2C[C@@H](NCCOC)c3c(C(=O)NCc4ccc(F)cc4F)c(=O)c(O)c(n32)C1=O [Compound 28]			6	21
CCN1C[C@H]2C[C@H](NCCC(F)(F)F)c3c(C(=O)NCc4ccc(F)cc4F)c(=O)c(O)c(n32)C1=O [Compound 29]			7	228
CCN1C[C@H]2C[C@@H](NCCC(F)(F)F)c3c(C(=O)NCc4ccc(F)cc4F)c(=O)c(O)c(n32)C1=O [Compound 30]			6	31
[2H]C([2H])([2H])C([2H])([2H])N[C@H]1C[C@@H]2CN(CC)C(=O)c3c(O)c(=O)c(C(=O)NCc4ccc(F)cc4F)c1n32 [Compound 31]			5	3720
CCN1C[C@@H]2C[C@@H](N(C)C)c3c(C(=O)NCc4ccc(F)cc4F)c(=O)c(O)c(n32)C1=O [Compound 37]	2	11		
CCN1C[C@@H]2C[C@@H](N(C)C)c3c(C(=O)NCc4cccc(Cl)c4F)c(=O)c(O)c(n32)C1=O [Compound 38]			1	12
CCN1C[C@@H]2C[C@@H](N(C)C)c3c(C(=O)NCc4ccc(F)cc4)c(=O)c(O)c(n32)C1=O [Compound 39]			3	22
